Measurements published in PubChem BioAssay (NCI).
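Cultured in 96-well plates, cells were exposed to test compound for 48 hours across five concentrations. TGI is the concentration that stops growth completely.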

The compounds below were run on A498 renal (assay: NCI anticancer screen, dose series, 48 h).

Compound	TGI
COc1cccc(Nc2nc(C)c([N+](=O)[O-])c(Nc3cccc(OC)c3)n2)c1	50.4 µM
O=C(O)c1cccc(Nc2c(C(=O)O)cccc2[N+](=O)[O-])c1	> 100 µM
O=c1[nH]c2cccc([N+](=O)[O-])c2c(=O)n1-c1ccc(Cl)cc1	30.6 µM
O=[N+]([O-])/C(C(Cl)=C(Cl)Cl)=C1\Nc2ccc([N+](=O)[O-])cc2N1	> 100 µM
OC1=C2c3ccccc3NC2Oc2cc(F)ccc21 (configuration not stated)	32.4 µM

The compounds below were run on TK-10 renal (assay: NCI anticancer screen, dose series, 48 h).

Compound	TGI
CCOc1cccc(C=Nc2ccccc2SSc2ccccc2N=Cc2cccc(OCC)c2O)c1O	51.4 µM
COc1cc(C(=O)NNC(=O)c2cc(Br)ccc2NC(=O)c2cccs2)cc(OC)c1OC	> 100 µM
Cc1c2c(cc3c1C(=O)C(=O)C([C@@H](C)CO)=C3O)C(C)(C)CCC2	> 100 µM
C[N+]12CCCCC1C(COc1cccc3cccnc13)CCC2 (configuration not stated)	> 100 µM
NC(=O)NC1NC(=O)NC1=O (configuration not stated)	> 100 µM
CC[C@@]1(O)C(=O)OCc2c1cc1n(c2=O)Cc2c-1nc1ccccc1c2/C=N\NC(=O)C[n+]1ccccc1	> 100 µM
C=CCN1C(=O)/C(=C/c2ccc(Cl)cc2)N=C1SC/C=C/C	> 100 µM
CC12Nc3c(Cl)cc(Cl)cc3N1C(=O)c1ccccc12 (configuration not stated)	> 100 µM
CN(C)CCn1c(=O)c2ccc(NCCNCCO)c3c(=O)c4ccccc4n(c1=O)c23	6.95 µM
OCC1OC(NC(=S)NCCC(F)(F)C(F)(F)C(F)(F)C(F)(F)C(F)(F)C(F)(F)F)C(O)C(O)C1O (configuration not stated)	> 100 µM
COC(=O)c1ccccc1/C=C1\Cc2c(ccc3c2CCC3)C1=O	> 100 µM
Nc1cc(Cl)cc2cc(Cl)cnc12	> 100 µM
O=S(=O)(O)CCSSCCS(=O)(=O)O	> 1000 µM
CC1=CC[C@H](C[C@H](C#CCCCC2OCCO2)O[Si](C(C)C)(C(C)C)C(C)C)C(=O)CC1	> 100 µM
Cc1ccc2c(c1)C(=O)C1(C2)Cc2c(C)cccc2C1=O (configuration not stated)	> 100 µM
CC1=NN(c2cccc(S(=O)(=O)O)c2)C2(C1)C(Cl)C(=O)N2c1nc2ccccc2s1 (configuration not stated)	27.3 µM
O=c1[nH]c(=O)n(C/C=C/CO)nc1Br	> 100 µM
O=C1Cc2c([nH]c3ccc(Br)cc23)-c2cc(Br)ccc2N1	> 100 µM
O=C1CC(Br)c2c(Br)sc(Br)c21 (configuration not stated)	32.4 µM
CC[C@]12C=CCN3CC[C@@]4(c5cc(Br)c(OC)c([N+](=O)[O-])c5N(C)[C@H]4[C@@](O)(C(=O)OC)[C@@H]1OC(C)=O)[C@@H]32	> 100 µM
COc1ccc(CNc2ccn(C3OC(CO)C(O)C3O)c(=O)n2)cc1 (configuration not stated)	> 100 µM
COc1ccc(NC(=S)Nc2cc(C)ccn2)cc1	> 100 µM
NC(CSS(=O)(=O)O)=NC1CC2CCC1C2 (configuration not stated)	> 100 µM
COc1cccc(Nc2nc(C)c([N+](=O)[O-])c(Nc3cccc(OC)c3)n2)c1	95.7 µM
O=C(O)c1cccc(Nc2c(C(=O)O)cccc2[N+](=O)[O-])c1	> 100 µM
O=c1[nH]c2cccc([N+](=O)[O-])c2c(=O)n1-c1ccc(Cl)cc1	39 µM
O=[N+]([O-])/C(C(Cl)=C(Cl)Cl)=C1\Nc2ccc([N+](=O)[O-])cc2N1	> 100 µM
OC1=C2c3ccccc3NC2Oc2cc(F)ccc21 (configuration not stated)	47.1 µM

These compounds were tested on MOLT-4 leukemia (assay: NCI anticancer screen, dose series, 48 h).

Compound	TGI
CCOc1cccc(C=Nc2ccccc2SSc2ccccc2N=Cc2cccc(OCC)c2O)c1O	10.4 µM
COc1cc(C(=O)NNC(=O)c2cc(Br)ccc2NC(=O)c2cccs2)cc(OC)c1OC	> 100 µM
Cc1c2c(cc3c1C(=O)C(=O)C([C@@H](C)CO)=C3O)C(C)(C)CCC2	93.2 µM
C[N+]12CCCCC1C(COc1cccc3cccnc13)CCC2 (configuration not stated)	> 100 µM
NC(=O)NC1NC(=O)NC1=O (configuration not stated)	> 100 µM
CC[C@@]1(O)C(=O)OCc2c1cc1n(c2=O)Cc2c-1nc1ccccc1c2/C=N\NC(=O)C[n+]1ccccc1	11.7 µM
COc1ccc(CC2Cc3ccccc3CCN2)cc1OC (configuration not stated)	> 50 µM
C=CCN1C(=O)/C(=C/c2ccc(Cl)cc2)N=C1SC/C=C/C	43.8 µM
CC12Nc3c(Cl)cc(Cl)cc3N1C(=O)c1ccccc12 (configuration not stated)	> 100 µM
OCC1OC(NC(=S)NCCC(F)(F)C(F)(F)C(F)(F)C(F)(F)C(F)(F)C(F)(F)F)C(O)C(O)C1O (configuration not stated)	> 100 µM
COC(=O)c1ccccc1/C=C1\Cc2c(ccc3c2CCC3)C1=O	> 100 µM
Nc1cc(Cl)cc2cc(Cl)cnc12	> 100 µM
O=S(=O)(O)CCSSCCS(=O)(=O)O	> 1000 µM
CC1=CC[C@H](C[C@H](C#CCCCC2OCCO2)O[Si](C(C)C)(C(C)C)C(C)C)C(=O)CC1	> 100 µM
CC(=O)OCC1OC(NC(=S)Nn2c(=O)[nH]c3ccccc3c2=O)C(OC(C)=O)C(OC(C)=O)C1OC(C)=O (configuration not stated)	> 100 µM
Cc1ccc2c(c1)C(=O)C1(C2)Cc2c(C)cccc2C1=O (configuration not stated)	> 100 µM
CC1=NN(c2cccc(S(=O)(=O)O)c2)C2(C1)C(Cl)C(=O)N2c1nc2ccccc2s1 (configuration not stated)	11.8 µM
O=c1[nH]c(=O)n(C/C=C/CO)nc1Br	> 100 µM
O=C1Cc2c([nH]c3ccc(Br)cc23)-c2cc(Br)ccc2N1	> 100 µM
O=C1CC(Br)c2c(Br)sc(Br)c21 (configuration not stated)	25.5 µM
CC[C@]12C=CCN3CC[C@@]4(c5cc(Br)c(OC)c([N+](=O)[O-])c5N(C)[C@H]4[C@@](O)(C(=O)OC)[C@@H]1OC(C)=O)[C@@H]32	70.6 µM
COc1ccc(CNc2ccn(C3OC(CO)C(O)C3O)c(=O)n2)cc1 (configuration not stated)	> 100 µM
COc1ccc(NC(=S)Nc2cc(C)ccn2)cc1	> 100 µM
NC(CSS(=O)(=O)O)=NC1CC2CCC1C2 (configuration not stated)	> 100 µM
